According to PMC8269283 (ACS chemical neuroscience, 2018):
pEC50, pIC50: −log10 of the molar value. Like-named read-outs stand apart in the source and are kept apart here.

Columns and labels:
DAT [1] = details: cited from earlier work
SERT [2] = details: cited from earlier work
SERT [3] = target: T1, SERT (Rattus norvegicus, UniProt P31652); assay: transporter-mediated release in rat brain synaptosomes, SERT; assay type: biochemical
DAT [4] = target: T2, DAT (Rattus norvegicus, UniProt P23977); assay: transporter-mediated release in rat brain synaptosomes, DAT; assay type: biochemical; details: for DAT vs SERT Selectivity: SERT EC50 ÷ DAT EC50
T2 sequence (P23977 whole entry): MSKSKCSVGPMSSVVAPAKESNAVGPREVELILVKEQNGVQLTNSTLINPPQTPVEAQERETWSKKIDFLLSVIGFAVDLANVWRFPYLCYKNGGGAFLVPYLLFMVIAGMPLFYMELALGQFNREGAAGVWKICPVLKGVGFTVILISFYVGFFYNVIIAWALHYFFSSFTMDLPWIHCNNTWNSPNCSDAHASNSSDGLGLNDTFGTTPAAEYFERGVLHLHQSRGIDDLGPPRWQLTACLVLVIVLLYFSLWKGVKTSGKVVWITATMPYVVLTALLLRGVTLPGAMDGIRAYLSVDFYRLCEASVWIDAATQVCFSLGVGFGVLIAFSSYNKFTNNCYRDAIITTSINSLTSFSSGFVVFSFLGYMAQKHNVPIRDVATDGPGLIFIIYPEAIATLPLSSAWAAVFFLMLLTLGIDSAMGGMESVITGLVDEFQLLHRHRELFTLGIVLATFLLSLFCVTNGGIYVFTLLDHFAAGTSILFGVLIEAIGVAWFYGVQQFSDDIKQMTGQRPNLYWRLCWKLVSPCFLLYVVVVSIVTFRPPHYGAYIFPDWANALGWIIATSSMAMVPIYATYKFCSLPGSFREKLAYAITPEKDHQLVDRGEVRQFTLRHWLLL

SERT [5] = target: T1, SERT; details: cited from earlier work
DAT [6] = target: T2, DAT; details: cited from earlier work
NET [7] = target: NET (Rattus norvegicus, UniProt Q63380); details: read-out: EC50 as NET releasing agent, previously reported; cited from earlier work
NET (Rattus norvegicus, UniProt Q63380), sequence (Q63380 1-617): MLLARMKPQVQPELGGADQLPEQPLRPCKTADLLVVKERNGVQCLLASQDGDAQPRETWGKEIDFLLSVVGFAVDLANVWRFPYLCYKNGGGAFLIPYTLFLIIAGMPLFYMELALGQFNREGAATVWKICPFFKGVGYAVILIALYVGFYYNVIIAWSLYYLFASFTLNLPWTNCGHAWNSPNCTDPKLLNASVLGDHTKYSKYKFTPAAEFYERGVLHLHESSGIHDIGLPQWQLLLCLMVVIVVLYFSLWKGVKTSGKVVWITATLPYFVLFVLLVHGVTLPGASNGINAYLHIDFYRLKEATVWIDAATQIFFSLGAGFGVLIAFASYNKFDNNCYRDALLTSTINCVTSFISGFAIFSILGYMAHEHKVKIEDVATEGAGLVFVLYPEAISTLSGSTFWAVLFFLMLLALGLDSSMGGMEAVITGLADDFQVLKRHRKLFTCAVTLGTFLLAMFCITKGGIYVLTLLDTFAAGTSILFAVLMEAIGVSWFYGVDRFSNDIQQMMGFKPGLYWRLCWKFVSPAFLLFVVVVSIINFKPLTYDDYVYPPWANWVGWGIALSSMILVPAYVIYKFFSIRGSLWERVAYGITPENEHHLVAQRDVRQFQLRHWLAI

NET [8] = details: read-out: IC50 reuptake inhibitor at NET; cited from earlier work
SERT [9] = details: read-out: IC50 reuptake inhibitor at SERT; cited from earlier work
DAT [10] = details: read-out: IC50 reuptake inhibitor at DAT; cited from earlier work
SERT [11] = details: read-out: IC50 reuptake inhibitor at SERT; cited from earlier work; remark: listed apart in the source
NET [12] = details: read-out: IC50 reuptake inhibitor at NET; cited from earlier work; remark: listed apart in the source

T1 sequence (P31652 whole entry): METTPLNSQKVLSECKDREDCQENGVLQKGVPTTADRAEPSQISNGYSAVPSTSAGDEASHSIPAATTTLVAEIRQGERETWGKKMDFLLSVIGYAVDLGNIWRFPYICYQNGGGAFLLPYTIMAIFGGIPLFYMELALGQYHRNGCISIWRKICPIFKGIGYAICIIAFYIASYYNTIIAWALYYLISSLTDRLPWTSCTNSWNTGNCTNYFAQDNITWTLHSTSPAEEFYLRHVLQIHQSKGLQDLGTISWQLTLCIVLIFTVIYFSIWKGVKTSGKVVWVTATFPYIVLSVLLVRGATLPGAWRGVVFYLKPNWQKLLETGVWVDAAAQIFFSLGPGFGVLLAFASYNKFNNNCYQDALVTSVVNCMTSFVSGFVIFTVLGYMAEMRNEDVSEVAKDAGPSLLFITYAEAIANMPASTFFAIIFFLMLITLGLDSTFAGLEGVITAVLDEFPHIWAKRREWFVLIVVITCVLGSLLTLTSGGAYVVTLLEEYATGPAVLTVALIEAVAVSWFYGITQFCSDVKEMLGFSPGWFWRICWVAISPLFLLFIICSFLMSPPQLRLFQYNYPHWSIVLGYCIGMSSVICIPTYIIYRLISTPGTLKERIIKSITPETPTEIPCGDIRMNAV

Row | SMILES | pEC50 (SERT [3]) | pEC50 (DAT [4]) | DAT vs SERT Selectivity (DAT [4]; 2-substituted series) | DAT vs SERT Selectivity (DAT [4]; 3-substituted series) | further results
1 | CNC(C)C(=O)c1ccccc1C(F)(F)F (stereo not drawn) [2-CF3 analog] | – | – | – | – | less potent than 3e as a releasing agent at DAT (DAT [1]): > 10 fold; less potent than 3e as a releasing agent at SERT (SERT [2]): > 10 fold
2 | CNC(C)C(=O)c1ccccc1Cl.Cl (stereo not drawn) [2a, 1-(2-Chlorophenyl)-2-(methylamino)propan-1-one Hydrochloride] | 5.55 | 6.75 | 16 | – | –
3 | CNC(C)C(=O)c1cccc(Cl)c1 (stereo not drawn) [3a, 3-Chloromethcathinone] | – | – | – | 8 | pEC50 (SERT [5]; read-out: EC50 as SERT releasing agent, previously reported): 6.67; pEC50 (DAT [6]; read-out: EC50 as DAT releasing agent, previously reported): 7.54; pEC50 (NET [7]): 7.40
4 | CNC(C)C(=O)c1ccccc1C.Cl (stereo not drawn) [2c, 2-(Methylamino)-1-(2-methylphenyl)propan-1-one Hydrochloride] | 6.31 | 7.09 | 6 | – | –
5 | CNC(C)C(=O)c1ccccc1OC.Cl (stereo not drawn) [2d, 1-(2-Methoxyphenyl)-2-(methylamino)propan-1-one Hydrochloride] | 5.14 | 6.04 | 8 | – | –
6 | CNC(C)C(=O)c1cccc(C)c1.Cl (stereo not drawn) [3c, 2-(Methylamino)-1-(3-methylphenyl)propan-1-one Hydrochloride] | 6.57 | 7.55 | – | 10 | pIC50 (NET [8]): 6.57; pIC50 (SERT [9]): 5.02; pIC50 (DAT [10]): 5.59
7 | CNC(C)C(=O)c1cccc(Br)c1.Cl (stereo not drawn) [3b, 1-(3-Bromophenyl)-2-(methylamino)propan-1-one Hydrochloride] | 6.87 | 7.68 | – | 6 | pIC50 (SERT [11]): 5.70; pIC50 (NET [12]): 6.80
8 | CNC(C)C(=O)c1ccccc1 (stereo not drawn) [compound 1, Methcathinone] | – | – | 103 | 279 | selectivity for DAT vs SERT as a releasing agent (DAT [6]): > 300 fold
9 | CNC(C)C(=O)c1ccccc1Br.Cl (stereo not drawn) [2b, 1-(2-Bromophenyl)-2-(methylamino)propan-1-one Hydrochloride] | 5.55 | 6.19 | 4 | – | –
10 | CNC(C)C(=O)c1ccc(C(F)(F)F)cc1 (stereo not drawn) [4e] | – | – | – | – | SERT selectivity (SERT vs DAT) as a releasing agent (SERT [5]): 14 fold
11 | CNC(C)C(=O)c1cccc(OC)c1.Cl (stereo not drawn) [3d, 2-(Methylamino)-1-(3-methoxyphenyl)propan-1-one Hydrochloride] | 6.17 | 6.96 | – | 6 | –
12 | CNC(C)C(=O)c1cccc(C(F)(F)F)c1.Cl (stereo not drawn) [3e, 2-(Methylamino)-1-(3-(trifluoromethyl)phenyl)propan-1-one Hydrochloride] | 6.55 | 6.15 | – | 0.4 | –
